Literature values, collected in patent US20050058675A1, “Fullerene compositions for ameliorating dermatological conditions” (priority 2003, published 2005).

Tested on: mice
Details: oral, about 0.5 mg/kg/day

For C60(>C(COOH)2)3 [C3], the “increase in mean survival relative to controls” value is listed as about 20% and the mean survival (controls 23.5+/−5.5 months, p=0.033) is listed as 28.7+/−3.3 months.
